Test results: ChEMBL document CHEMBL1201862, “PubChem BioAssay data set” (2004)
The source made the active and inactive calls.

Experiments:
[1] = target: Eukaryotic translation initiation factor 4E (Mus musculus, UniProt P63073); assay: blockers of eIF4G binding by eIF4E – biochemical, TR-FRET, dose response (AID 855); assay type: functional;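 note: potency for disrupting eIF4E binding to eIF4GI seen as loss of FRET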
[2] = target: T1, Hexokinase HKDC1 (Homo sapiens, UniProt Q2TB90); assay: inhibition of HKDC1 glucose phosphorylation – biochemical, W721R variant, dose response (AID 504729); assay type: functional
T1 sequence (Q2TB90 whole entry): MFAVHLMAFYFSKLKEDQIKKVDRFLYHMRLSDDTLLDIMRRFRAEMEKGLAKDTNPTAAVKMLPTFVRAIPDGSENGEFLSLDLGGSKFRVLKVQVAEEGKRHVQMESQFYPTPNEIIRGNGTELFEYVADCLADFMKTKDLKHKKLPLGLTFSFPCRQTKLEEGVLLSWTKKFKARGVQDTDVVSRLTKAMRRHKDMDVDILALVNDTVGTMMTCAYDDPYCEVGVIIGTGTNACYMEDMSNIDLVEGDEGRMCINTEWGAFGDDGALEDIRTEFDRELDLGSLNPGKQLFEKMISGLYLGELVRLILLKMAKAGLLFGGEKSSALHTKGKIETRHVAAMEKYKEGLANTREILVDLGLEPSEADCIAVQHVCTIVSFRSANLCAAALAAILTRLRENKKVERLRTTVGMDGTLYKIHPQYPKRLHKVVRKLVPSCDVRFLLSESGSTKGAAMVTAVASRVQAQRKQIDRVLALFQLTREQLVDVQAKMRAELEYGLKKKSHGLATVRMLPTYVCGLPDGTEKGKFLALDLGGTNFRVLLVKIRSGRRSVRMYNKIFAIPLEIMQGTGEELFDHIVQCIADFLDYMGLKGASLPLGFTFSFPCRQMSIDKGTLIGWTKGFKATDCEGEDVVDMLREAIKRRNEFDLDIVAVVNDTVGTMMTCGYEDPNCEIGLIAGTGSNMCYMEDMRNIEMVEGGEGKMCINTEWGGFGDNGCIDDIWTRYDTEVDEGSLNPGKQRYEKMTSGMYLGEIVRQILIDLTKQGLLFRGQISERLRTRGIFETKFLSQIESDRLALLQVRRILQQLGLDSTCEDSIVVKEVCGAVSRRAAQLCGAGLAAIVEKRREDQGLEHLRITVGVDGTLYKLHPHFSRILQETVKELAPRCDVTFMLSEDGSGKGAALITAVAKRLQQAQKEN

[3] = target: Tyrosine-protein phosphatase non-receptor type 11 (Homo sapiens, UniProt Q06124); assay: PTPN11 enzyme inhibitors – biochemical, selectivity assay for STEP inhibitor project, dose response (AID 602367); assay type: functional; conditions: read-out: IC50_Mean
[4] = target: Tyrosine-protein phosphatase non-receptor type 5 (Homo sapiens, UniProt P54829); assay: PTPN5 enzyme inhibition – biochemical, fluorescence intensity, uHTS hits, confirmation (AID 602372); assay type: functional; conditions: read-out: IC50_Mean
[5] = target: Dual specificity protein phosphatase 3 (Homo sapiens, UniProt P51452); assay: VHR phosphatase inhibition, dose response, selectivity assay for STEP inhibitor project, biochemical (AID 602374); assay type: functional; conditions: read-out: IC50_Mean
[6] = target: T2, DNA repair protein RAD52 homolog (Homo sapiens, UniProt P43351); assay type: functional, biochemical
T2 sequence (P43351 whole entry): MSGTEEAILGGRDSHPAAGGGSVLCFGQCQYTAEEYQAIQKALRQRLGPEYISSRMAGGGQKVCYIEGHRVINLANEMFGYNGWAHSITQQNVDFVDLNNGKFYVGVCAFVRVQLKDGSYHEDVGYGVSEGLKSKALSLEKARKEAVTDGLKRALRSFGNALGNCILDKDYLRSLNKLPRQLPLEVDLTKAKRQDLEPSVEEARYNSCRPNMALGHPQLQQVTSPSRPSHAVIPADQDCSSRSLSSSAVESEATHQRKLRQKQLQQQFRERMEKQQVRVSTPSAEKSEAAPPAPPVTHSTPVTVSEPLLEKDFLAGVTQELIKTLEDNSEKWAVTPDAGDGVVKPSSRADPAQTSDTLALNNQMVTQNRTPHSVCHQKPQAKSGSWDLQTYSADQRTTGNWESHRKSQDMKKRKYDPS

[7] = target: T3, Histone-lysine N-methyltransferase NSD2 (Homo sapiens, UniProt O96028); assay type: biochemical
T3 sequence (O96028 whole entry): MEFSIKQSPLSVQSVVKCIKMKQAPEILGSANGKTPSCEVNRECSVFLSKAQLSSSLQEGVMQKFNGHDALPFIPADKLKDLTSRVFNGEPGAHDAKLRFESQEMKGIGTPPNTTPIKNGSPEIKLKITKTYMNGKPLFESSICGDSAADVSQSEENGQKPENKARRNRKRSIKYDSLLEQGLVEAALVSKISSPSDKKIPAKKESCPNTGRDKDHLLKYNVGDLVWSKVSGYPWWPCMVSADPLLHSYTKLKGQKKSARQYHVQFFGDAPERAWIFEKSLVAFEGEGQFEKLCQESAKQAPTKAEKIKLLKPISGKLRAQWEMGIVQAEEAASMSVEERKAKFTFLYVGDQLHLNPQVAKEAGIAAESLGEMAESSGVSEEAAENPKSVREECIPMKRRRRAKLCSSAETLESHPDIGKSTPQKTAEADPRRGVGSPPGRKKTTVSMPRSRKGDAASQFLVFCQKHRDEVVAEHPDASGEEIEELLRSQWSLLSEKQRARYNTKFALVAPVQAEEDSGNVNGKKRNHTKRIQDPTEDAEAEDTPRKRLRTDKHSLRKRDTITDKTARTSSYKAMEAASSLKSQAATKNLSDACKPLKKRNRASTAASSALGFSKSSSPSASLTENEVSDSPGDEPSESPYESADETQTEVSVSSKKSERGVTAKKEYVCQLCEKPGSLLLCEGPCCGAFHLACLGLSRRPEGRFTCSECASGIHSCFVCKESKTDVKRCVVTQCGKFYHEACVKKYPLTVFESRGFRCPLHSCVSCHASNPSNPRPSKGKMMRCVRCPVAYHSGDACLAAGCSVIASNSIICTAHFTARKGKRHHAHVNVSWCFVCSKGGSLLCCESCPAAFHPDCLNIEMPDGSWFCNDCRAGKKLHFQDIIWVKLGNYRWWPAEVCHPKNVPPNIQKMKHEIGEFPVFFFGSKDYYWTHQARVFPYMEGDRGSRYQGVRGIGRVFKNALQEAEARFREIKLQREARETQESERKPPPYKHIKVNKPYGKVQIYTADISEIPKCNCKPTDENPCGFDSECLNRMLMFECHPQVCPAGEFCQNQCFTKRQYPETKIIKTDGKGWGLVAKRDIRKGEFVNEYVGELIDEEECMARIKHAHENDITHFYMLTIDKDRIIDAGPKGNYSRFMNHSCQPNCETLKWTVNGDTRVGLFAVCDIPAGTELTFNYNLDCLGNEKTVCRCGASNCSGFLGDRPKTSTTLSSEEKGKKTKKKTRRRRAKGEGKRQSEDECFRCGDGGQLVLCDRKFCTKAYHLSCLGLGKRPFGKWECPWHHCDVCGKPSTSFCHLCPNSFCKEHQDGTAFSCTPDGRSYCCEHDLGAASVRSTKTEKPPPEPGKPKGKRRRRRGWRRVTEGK

[8] = target: T4, Heat shock factor protein 1 (Mus musculus, UniProt P38532); assay: decrease of HSF1-responsive luciferase luminescence – cell-based, NIH3T3, dose retest, confirmation (AID 2382); assay type: functional;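 note: NIH3T3 fibroblasts with HSF1-driven luciferase reporter stressed by proteasome inhibitor MG132; luminescence from HSF1-driven luciferase expression after 8 hours of MG132 stress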
T4 sequence (P38532 whole entry): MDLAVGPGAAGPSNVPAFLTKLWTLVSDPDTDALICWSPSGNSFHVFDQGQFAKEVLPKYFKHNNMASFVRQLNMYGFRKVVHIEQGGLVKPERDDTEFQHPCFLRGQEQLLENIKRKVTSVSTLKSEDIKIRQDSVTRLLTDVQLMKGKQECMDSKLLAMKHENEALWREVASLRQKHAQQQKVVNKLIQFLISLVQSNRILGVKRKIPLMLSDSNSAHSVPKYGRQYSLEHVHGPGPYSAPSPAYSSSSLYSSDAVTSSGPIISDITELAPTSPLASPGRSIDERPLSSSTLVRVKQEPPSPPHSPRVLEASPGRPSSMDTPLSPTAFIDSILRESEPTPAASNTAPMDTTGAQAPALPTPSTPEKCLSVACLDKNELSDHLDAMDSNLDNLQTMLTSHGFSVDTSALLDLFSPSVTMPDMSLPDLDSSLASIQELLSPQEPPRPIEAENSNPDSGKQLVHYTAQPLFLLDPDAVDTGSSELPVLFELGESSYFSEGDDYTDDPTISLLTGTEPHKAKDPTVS

[9] = target: Luciferin 4-monooxygenase (Photinus pyralis, UniProt P08659); assay: inhibition of purified Photinus pyralis luciferase – biochemical, luminescence, dose response (AID 1891)
[10] = target: Tumor necrosis factor (Homo sapiens, UniProt P01375); assay: analog potency on TNFa NF-kB signaling – cell-based, revised, SAR follow-up (AID 2337); assay type: functional
Chain of Tumor necrosis factor (P01375 whole entry, the tested form may be a part): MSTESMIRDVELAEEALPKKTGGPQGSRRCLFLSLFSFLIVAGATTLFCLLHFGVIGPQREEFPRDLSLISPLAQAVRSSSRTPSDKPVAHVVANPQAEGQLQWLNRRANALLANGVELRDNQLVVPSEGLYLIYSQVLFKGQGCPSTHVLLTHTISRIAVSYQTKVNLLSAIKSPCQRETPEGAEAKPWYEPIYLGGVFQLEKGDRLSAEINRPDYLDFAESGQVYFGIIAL

[11] = target: Nucleotide-binding oligomerization domain-containing protein 1 (Homo sapiens, UniProt Q9Y239); assay: blockers of NOD1 pathway activity – revised, SAR follow-up (AID 2333); assay type: functional
Chain of Nucleotide-binding oligomerization domain-containing protein 1 (Q9Y239 whole entry, the tested form may be a part): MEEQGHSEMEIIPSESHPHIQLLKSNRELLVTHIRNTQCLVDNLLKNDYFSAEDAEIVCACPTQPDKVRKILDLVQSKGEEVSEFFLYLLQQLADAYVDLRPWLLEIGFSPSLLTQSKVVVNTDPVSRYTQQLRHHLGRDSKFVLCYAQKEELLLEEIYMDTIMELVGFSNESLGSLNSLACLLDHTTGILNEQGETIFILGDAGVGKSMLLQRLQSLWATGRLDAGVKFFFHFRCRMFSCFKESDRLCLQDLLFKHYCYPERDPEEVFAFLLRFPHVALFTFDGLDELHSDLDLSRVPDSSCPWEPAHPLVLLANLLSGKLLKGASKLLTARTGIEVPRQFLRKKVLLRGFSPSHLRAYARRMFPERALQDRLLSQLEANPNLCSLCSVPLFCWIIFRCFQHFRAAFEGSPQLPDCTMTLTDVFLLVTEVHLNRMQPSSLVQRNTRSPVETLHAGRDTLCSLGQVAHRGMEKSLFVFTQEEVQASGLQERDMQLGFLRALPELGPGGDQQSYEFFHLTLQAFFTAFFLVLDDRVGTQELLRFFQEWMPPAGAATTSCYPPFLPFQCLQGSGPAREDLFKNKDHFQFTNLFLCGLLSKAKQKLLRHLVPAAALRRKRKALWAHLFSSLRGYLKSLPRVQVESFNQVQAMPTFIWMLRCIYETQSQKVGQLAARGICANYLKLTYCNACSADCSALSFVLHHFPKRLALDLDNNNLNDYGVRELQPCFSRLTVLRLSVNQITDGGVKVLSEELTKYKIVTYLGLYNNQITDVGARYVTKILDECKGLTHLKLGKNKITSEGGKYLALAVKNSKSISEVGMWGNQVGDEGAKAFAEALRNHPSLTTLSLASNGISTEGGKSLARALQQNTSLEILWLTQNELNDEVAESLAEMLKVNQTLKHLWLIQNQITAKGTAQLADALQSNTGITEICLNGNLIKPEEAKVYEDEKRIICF

[12] = test system: HEK293; assay: cells; conditions: Homo sapiens;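 note: cells exposed to compound for 14 hours overnight before viability readout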
[13] = NIH-3T3 fibroblast cytotoxicity, dose response, cytotoxicity control, cell-based, fluorescence, Alamar Blue, secondary assay (AID 2327); assay type: functional;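 note: NIH-3T3 mouse fibroblasts cultured with fluconazole at 8 µg/mL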
[14] = luciferase reporter signal suppression in cells – H4 neuroglioma cells, luminescence, dose response (AID 1990); assay type: functional, cell-based
[15] = Luminescence Cell-Based Dose Response HTS to Identify Inhibitors of 5'UTR Stem-Loop Driven Prion Protein mRNA Translation in H4 Neuroglioblastoma Cells. [Related pubchem assays: 1827 (Project Summary), 1813 (Primary HTS)]; assay type: functional
[16] = alpha-synuclein stem-loop luciferase translation blockers – H4 neuroglioma cells, luminescence, confirmation (AID 1988); assay type: functional, cell-based
[17] = Trypanosoma cruzi growth suppression in host cells – NIH3T3 host cells, beta-gal luminescence, confirmation (AID 2044); assay type: functional, cell-based;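 note: intracellular parasites grown in NIH/3T3 mouse fibroblasts as host cells; luminescent beta-galactosidase reporter signal from transgenic T. cruzi replicating inside host cells; inhibitors lower the luminescence signal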
[18] = target: T5, Calpain-2 catalytic subunit (Sus scrofa, UniProt P43367); assay: m-calpain protease blockers, concentration series – biochemical, fluorogenic peptide substrate, dose response (AID 1420); assay type: functional
T5 sequence (P43367 whole entry): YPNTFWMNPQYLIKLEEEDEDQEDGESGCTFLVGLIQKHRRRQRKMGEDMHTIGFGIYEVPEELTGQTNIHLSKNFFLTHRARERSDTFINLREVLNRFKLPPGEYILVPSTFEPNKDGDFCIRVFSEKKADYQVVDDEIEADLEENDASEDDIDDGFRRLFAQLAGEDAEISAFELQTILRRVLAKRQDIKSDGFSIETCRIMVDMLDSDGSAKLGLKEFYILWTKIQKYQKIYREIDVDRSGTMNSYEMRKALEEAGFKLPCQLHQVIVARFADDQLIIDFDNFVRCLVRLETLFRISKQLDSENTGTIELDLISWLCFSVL

[19] = NIH3T3 cell viability loss – ATP luminescence, mouse fibroblasts, counter-screen, dose response (AID 2010); assay type: functional, cell-based;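 note: cells exposed to compound for about 90 hours before reading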
[20] = target: Neurotensin receptor type 1 (Homo sapiens, UniProt P30989); assay type: functional;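 note: Image-based confirmatory dose-response assay measuring agonist activity at NTR1; NTR1-expressing U2OS osteosarcoma cells imaged for beta-arrestin GFP spot formation; agonist potency where compounds increase beta-arrestin recruitment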
Chain of Neurotensin receptor type 1 (P30989 whole entry): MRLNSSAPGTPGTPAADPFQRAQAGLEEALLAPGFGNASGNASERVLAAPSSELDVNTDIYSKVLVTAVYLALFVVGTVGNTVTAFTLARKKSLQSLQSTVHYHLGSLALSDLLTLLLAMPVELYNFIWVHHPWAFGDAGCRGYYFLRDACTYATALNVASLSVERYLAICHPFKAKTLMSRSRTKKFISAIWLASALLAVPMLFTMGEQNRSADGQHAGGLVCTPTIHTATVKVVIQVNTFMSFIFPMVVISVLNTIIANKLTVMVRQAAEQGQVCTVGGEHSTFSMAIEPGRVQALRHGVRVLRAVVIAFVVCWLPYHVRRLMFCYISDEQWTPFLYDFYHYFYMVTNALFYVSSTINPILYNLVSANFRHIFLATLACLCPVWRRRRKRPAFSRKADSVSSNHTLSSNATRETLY

[21] = HEK-293T viability loss after treatment – luminescence, T-cell screen hits, cytotoxicity control for TCR NF-kB inhibitor project, dose response (AID 489026); assay type: functional, cell-based;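 note: cells exposed to compound about 14 hours before the viability readout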
[22] = cells
[23] = Luminescence Cell-Based Dose Retest to Confirm Inhibitors of Cancer Stem Cells. [Related pubchem assays (depositor defined):AID2717, AID2721]; assay type: functional; conditions: Homo sapiens
[24] = Fluorescence-based cell-based high throughput dose response assay for inhibitors of the interaction of nucleotide-binding oligomerization domain containing 2 (NOD2) and the receptor-interacting serine-threonine kinase 2 (RIPK2).; assay type: functional; conditions: Homo sapiens
[25] = target: T6, Voltage-gated N-type calcium channel alpha-1B subunit/Amyloid beta A4 precursor protein-binding family A member 1 (Homo sapiens, UniProt Q00975+Q02410); assay: disruptors of Mint-PDZ/N-type channel peptide interaction – biochemical, HTRF, set 2, SAR follow-up (AID 434980); assay type: functional
T6 sequence (Q00975 whole entry): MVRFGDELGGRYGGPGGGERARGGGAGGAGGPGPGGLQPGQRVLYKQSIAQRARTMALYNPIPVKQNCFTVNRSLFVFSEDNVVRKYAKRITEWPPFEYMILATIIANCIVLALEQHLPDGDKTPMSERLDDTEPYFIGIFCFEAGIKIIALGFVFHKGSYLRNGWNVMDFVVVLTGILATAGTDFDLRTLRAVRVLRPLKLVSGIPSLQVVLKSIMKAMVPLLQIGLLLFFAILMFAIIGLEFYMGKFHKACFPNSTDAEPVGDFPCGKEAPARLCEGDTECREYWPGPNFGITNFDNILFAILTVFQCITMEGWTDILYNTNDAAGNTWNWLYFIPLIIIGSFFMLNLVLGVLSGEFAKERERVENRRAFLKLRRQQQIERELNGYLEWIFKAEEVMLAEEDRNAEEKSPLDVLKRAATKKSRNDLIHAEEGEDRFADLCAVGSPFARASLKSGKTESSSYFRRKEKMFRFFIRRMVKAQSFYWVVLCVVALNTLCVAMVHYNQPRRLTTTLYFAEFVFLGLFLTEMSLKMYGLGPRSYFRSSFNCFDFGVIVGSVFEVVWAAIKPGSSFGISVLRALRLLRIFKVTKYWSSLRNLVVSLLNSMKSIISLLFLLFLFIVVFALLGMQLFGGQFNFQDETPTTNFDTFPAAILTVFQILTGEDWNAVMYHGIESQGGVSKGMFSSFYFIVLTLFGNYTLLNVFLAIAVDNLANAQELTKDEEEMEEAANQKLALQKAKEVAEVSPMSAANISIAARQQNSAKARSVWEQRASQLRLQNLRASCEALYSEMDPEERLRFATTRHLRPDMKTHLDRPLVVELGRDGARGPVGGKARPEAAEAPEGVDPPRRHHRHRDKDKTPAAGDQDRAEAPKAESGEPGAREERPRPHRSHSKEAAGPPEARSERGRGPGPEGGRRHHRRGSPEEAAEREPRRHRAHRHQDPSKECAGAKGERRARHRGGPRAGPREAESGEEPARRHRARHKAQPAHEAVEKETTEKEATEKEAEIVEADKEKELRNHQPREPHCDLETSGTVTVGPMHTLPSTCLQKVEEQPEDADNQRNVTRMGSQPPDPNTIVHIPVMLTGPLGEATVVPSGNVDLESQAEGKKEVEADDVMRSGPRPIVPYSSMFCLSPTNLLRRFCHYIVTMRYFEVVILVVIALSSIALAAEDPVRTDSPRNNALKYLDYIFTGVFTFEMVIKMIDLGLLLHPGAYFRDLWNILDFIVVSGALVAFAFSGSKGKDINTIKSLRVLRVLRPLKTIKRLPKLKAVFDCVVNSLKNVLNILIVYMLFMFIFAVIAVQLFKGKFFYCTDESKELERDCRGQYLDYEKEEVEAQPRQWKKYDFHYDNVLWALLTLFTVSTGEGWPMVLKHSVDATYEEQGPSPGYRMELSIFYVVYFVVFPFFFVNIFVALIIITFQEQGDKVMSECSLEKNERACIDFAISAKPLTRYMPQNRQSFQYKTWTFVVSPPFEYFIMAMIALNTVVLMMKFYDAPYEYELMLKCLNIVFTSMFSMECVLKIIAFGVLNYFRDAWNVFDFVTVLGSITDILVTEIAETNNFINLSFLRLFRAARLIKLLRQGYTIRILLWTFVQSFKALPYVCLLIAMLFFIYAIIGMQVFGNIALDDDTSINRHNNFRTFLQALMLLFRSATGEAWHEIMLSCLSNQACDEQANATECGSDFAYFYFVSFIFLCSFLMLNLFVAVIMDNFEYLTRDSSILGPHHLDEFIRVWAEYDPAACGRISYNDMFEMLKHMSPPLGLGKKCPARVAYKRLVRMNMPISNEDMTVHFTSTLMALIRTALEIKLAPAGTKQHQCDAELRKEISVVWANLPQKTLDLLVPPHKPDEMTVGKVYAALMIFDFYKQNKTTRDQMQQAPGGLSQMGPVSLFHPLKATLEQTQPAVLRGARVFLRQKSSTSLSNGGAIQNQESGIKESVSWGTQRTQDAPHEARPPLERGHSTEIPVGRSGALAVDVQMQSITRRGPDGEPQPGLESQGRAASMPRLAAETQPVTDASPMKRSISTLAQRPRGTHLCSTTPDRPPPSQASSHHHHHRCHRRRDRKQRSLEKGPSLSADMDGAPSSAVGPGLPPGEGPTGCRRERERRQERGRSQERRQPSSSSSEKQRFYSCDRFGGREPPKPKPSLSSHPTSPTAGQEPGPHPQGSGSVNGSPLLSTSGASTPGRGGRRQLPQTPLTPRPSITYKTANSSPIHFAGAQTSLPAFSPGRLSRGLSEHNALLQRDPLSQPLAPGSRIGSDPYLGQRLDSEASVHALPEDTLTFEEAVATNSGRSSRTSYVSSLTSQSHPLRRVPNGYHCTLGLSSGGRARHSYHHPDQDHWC
T6 sequence (Q02410 whole entry): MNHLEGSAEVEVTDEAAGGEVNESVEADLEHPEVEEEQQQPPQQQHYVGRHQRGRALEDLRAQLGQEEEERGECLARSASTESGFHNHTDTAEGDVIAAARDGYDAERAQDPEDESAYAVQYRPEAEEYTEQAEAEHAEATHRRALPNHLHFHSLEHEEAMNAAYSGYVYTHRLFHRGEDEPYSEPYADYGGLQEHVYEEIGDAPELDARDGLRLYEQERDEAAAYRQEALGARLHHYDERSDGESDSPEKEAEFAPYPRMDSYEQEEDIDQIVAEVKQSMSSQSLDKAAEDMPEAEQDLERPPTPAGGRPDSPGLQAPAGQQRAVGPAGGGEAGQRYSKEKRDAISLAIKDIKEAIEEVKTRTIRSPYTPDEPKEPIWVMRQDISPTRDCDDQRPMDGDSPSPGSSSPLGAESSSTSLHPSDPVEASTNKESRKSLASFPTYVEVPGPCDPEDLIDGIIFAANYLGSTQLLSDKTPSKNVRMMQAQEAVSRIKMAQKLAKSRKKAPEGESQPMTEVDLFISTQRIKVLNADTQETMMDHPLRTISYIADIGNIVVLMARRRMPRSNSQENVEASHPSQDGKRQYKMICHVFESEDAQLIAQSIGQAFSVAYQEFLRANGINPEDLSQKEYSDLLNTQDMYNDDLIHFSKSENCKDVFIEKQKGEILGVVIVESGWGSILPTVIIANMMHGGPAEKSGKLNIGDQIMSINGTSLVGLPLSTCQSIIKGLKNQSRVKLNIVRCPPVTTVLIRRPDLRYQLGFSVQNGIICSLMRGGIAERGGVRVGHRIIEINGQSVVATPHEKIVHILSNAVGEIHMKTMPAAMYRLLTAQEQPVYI

[26] = target: T6, Voltage-gated N-type calcium channel alpha-1B subunit/Amyloid beta A4 precursor protein-binding family A member 1; assay: disruptors of Mint-PDZ/N-type channel peptide interaction – biochemical, HTRF, SAR follow-up (AID 2489); assay type: functional
[27] = target: DNA dC->dU-editing enzyme APOBEC-3G (Homo sapiens, UniProt Q9HC16); assay: Dose Response confirmation of small molecule APOBEC3G DNA Deaminase Inhibitors via a fluorescence-based single-stranded DNA deaminase assay. [Related pubchem assays (depositor defined):AID493012, AID493028]; assay type: functional

Chain of Eukaryotic translation initiation factor 4E (P63073 whole entry): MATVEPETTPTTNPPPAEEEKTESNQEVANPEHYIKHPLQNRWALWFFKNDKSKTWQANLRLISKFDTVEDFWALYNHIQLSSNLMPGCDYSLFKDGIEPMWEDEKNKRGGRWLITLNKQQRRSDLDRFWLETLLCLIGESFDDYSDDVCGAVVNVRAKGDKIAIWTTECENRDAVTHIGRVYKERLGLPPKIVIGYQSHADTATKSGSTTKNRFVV

Structure (SMILES): N=C(NCc1ccc2c(c1)OCO2)NC(=O)c1ccccc1
- IC50 [1]: 17.3 µM (active)
- IC50 [2]: 25.8 µM (inactive)
- IC50 [3]: 19 µM (active)
- IC50 [4]: > 80 µM (inactive)
- IC50 [5]: 24.1 µM (inactive)
- AC50 [6]: 17.2 µM (active)
- AC50 [7]: 6.74 µM (active)

Structure (SMILES): CC(C)(C)c1ccc(C(=O)ON=C(N)c2ccccc2)cc1
- EC50 [8]: < 0.16 µM (active)
- EC50 [9]: 5.63 µM (active)
- IC50 [10]: 1.51 µM (active)
- IC50 [11]: 2.84 µM (active)

Structure (SMILES): CC(=O)N1c2ccc(S(=O)(=O)N3CCN(c4ccccc4)CC3)cc2CC1C (stereo not given)
- IC50 [10]: 14.1 µM (active)
- IC50 [11]: 11.1 µM (active)
- IC50 [12]: > 20 µM (inactive)

Structure (SMILES): CCCCCCCCCn1c2c(c(=N)c3c1CCC3)CCCC2
- EC50 [13]: 60.2 µM (active)
- EC50 [14]: 6.69 µM (active)
- EC50 [15]: 6.11 µM (active)
- EC50 [16]: 3.52 µM (active)
- EC50 [17]: < 0.1 µM (active)
- IC50 [18]: 4.68 µM (active)
- EC50 [19]: 3.44 µM (active)
- EC50 [20]: 6.65 µM (active)
- IC50 [21]: 42.1 µM (inactive)
- EC50 [22]: 0.011 µM (active)

Structure (SMILES): COc1ccc(C(=O)/C=C2/C(=O)Nc3ccccc32)c(OC)c1
- AC50 [23]: 5.87 µM (active)
- EC50 [20]: 24.2 µM (inactive)
- IC50 [24]: 19.5 µM (inactive)

Structure (SMILES): O=C(c1cc(-c2ccco2)nc2ccccc12)N1CCC(c2ccccc2)C1 (stereo not given)
- IC50 [25]: 13.6 µM (active)
- IC50 [26]: > 56.8 µM (inactive)

Structure (SMILES): CCNc1nc(NCC)n2c(SCC(=O)Nc3ccc(CC)cc3)nnc2n1
- IC50 [27]: 75.6 µM (active)
